Experimental data as given in patent US20240246937A1 (MERCK SHARP & DOHME LLC, priority 2021, published 2024).

Molecular target: recombinant IL4I1 (Homo sapiens (Human), UniProt Q96RQ9)
Test: IL4I1 Enzymatic Assay (Amplex Red/HRP coupled fluorescence detection of H2O2)
Type: biochemical
Conditions: 240 min; recombinant IL4I1, four-hour pre-incubation with compound
Outline: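 Recombinant human IL4I1 (1 nM final) pre-incubated 4 h with compound at ambient temperature in 50 mM Hepes pH 7.0, 0.005% Tween20. Started with 1 mM each Phe/Tyr/Trp plus Amplex Red/HRP; H2O2-derived resorufin fluorescence read after 120 min; EC50 from ten-point 1:3 titration, four-parameter fit.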

recombinant IL4I1, sequence (Q96RQ9 22-567): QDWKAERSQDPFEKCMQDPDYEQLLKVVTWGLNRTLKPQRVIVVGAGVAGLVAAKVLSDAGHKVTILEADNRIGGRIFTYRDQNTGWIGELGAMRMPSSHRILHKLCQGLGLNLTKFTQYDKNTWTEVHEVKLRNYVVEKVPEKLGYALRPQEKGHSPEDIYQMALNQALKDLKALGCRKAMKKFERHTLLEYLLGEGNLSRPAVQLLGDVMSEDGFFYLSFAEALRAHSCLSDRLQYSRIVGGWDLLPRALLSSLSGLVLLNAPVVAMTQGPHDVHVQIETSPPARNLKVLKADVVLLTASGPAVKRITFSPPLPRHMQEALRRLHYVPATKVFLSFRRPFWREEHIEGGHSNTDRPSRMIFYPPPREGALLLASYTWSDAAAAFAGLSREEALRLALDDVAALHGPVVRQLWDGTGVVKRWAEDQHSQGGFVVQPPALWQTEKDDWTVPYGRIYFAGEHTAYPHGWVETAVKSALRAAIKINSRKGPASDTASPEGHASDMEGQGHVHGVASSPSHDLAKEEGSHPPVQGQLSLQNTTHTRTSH

SMILES	EC50 [nM]
O=c1c(=O)n(C23CC(F)(C2)C3)ccn1Cc1ccc(-c2ccccn2)cn1 [Example 229, 1-([2,3′-bipyridin]-6′-ylmethyl)-4-(3-fluorobicyclo[1.1.1]pentan-1-yl)-1,4-dihydropyrazine-2,3-dione]	54
CC(CN1CCN(C2CCCC2)C(=O)C1=O)c1nnc(-c2ccccc2)s1 (stereo not drawn) [Example 353, 1-cyclopentyl-4-(2-(5-phenyl-1,3,4-thiadiazol-2-yl)propyl)piperazine-2,3-dione]	11
O=c1c(=O)n(C2CCCC2)ccn1Cc1nnc(-c2cccc(F)c2)s1 [Example 145, 1-cyclopentyl-4-((5-(3-fluorophenyl)-1,3,4-thiadiazol-2-yl)methyl)-1,4-dihydropyrazine-2,3-dione]	1
N#CC1CC(N2CCN(Cc3nnc(-c4ccccc4)s3)C(=O)C2=O)C1 (stereo not drawn) [Example 285, 3-(2,3-dioxo-4-((5-phenyl-1,3,4-thiadiazol-2-yl)methyl)piperazin-1-yl)cyclobutane-1-carbonitrile]	28
O=c1c(=O)n(C23CC(C2)C3)ccn1Cc1nnc(-c2ccccc2)s1 [Example 120, 1-(bicyclo[1.1.1]pentan-1-yl)-4-((5-phenyl-1,3,4-thiadiazol-2-yl)methyl)-1,4-dihydropyrazine-2,3-dione]	3
O=C1C(=O)N(C2CCCC2)CCN1Cc1ccc(-n2nccn2)cc1F [Example 379, 1-cyclopentyl-4-(2-fluoro-4-(2H-1,2,3-triazol-2-yl)benzyl)piperazine-2,3-dione]	24
C[C@H](c1nnc(-c2ccccc2)s1)N1CCN(C2CCC2)C(=O)C1=O [Example 355, (R)-1-cyclobutyl-4-(1-(5-phenyl-1,3,4-thiadiazol-2-yl)ethyl)piperazine-2,3-dione]	22
N#CC1(n2ccn(Cc3ccc(-n4nccn4)cn3)c(=O)c2=O)CC1 [Example 413, 1-(4-((5-(2H-1,2,3-triazol-2-yl)pyridin-2-yl)methyl)-2,3-dioxo-3,4-dihydropyrazin-1(2H)-yl)cyclopropane-1-carbonitrile]	66
O=c1c(=O)n(C2CCC2)ccn1Cc1nnc(-c2ccccc2F)s1 [Example 34, 1-cyclobutyl-4-((5-(2-fluorophenyl)-1,3,4-thiadiazol-2-yl)methyl)-1,4-dihydropyrazine-2,3-dione]	34
O=c1c(=O)n(C2(CF)CC2)ccn1Cc1ccc(-c2ccccn2)cn1 [Example 251, 1-([2,3′-bipyridin]-6′-ylmethyl)-4-(1-(fluoromethyl)cyclopropyl)-1,4-dihydropyrazine-2,3-dione]	100
O=c1c(=O)n(C2CCC2)ccn1Cc1cc(-c2ccc(F)cc2)on1 [Example 55, 1-cyclobutyl-4-((5-(4-fluorophenyl)isoxazol-3-yl)methyl)-1,4-dihydropyrazine-2,3-dione]	1
CC1(n2ccn(Cc3cc(-c4ccccc4)on3)c(=O)c2=O)CCC1 [Example 420, 1-(1-methylcyclobutyl)-4-((5-phenylisoxazol-3-yl)methyl)-1,4-dihydropyrazine-2,3-dione]	5
O=c1c(=O)n(C2CCC2)ccn1Cc1cc(-c2ccccc2)sn1 [Example 173, 1-cyclobutyl-4-((5-phenylisothiazol-3-yl)methyl)-1,4-dihydropyrazine-2,3-dione]	14
O=C1C(=O)N(C2CCCC2)CCN1Cc1ncc(-c2ccccc2)cn1 [Example 4, 1-cyclopentyl-4-((5-phenylpyrimidin-2-yl)methyl)piperazine-2,3-dione]	19
O=C1C(=O)N(C2CCCC2)CCN1Cc1ccc(-c2cncs2)cc1F [Example 19, 1-cyclopentyl-4-(2-fluoro-4-(thiazol-5-yl)benzyl)piperazine-2,3-dione]	7
O=c1c(=O)n(C2CCC2)ccn1Cc1ccc(-n2cccn2)nn1 [Example 329, 1-((6-(1H-pyrazol-1-yl)pyridazin-3-yl)methyl)-4-cyclobutyl-1,4-dihydropyrazine-2,3-dione]	15
N#CC1(n2ccn(Cc3ccc(-n4ccnn4)nc3)c(=O)c2=O)CC1 [Example 390, 1-(4-((6-(1H-1,2,3-triazol-1-yl)pyridin-3-yl)methyl)-2,3-dioxo-3,4-dihydropyrazin-1(2H)-yl)cyclopropane-1-carbonitrile]	343
O=C1C(=O)N(C23CC(F)(C2)C3)CCN1Cc1ccc(-c2ccccn2)nn1 [Example 226]	78
O=C1C(=O)N(C2CCC2)CCN1Cc1ncc(-c2ccccc2)cc1F [Example 106, 1-cyclobutyl-4-((3-fluoro-5-phenylpyridin-2-yl)methyl)piperazine-2,3-dione]	7
O=c1c(=O)n(C23CC(C2)C3)ccn1Cc1ccc(-n2nccn2)nc1 [Example 412, 1-((6-(2H-1,2,3-triazol-2-yl)pyridin-3-yl)methyl)-4-(bicyclo[1.1.1]pentan-1-yl)-1,4-dihydropyrazine-2,3-dione]	19

SMILES	EC50 [nM]
O=C1C(=O)N(C2CCC2)CCN1Cc1ccc(-c2cc(Br)ccc2F)nn1 [Example 81, 1-((6-(5-bromo-2-fluorophenyl)pyridazin-3-yl)methyl)-4-cyclobutylpiperazine-2,3-dione]	60
O=c1c(=O)n([C@H]2C[C@@H](c3ccccc3)C2)ccn1Cc1nnc(-c2nccs2)s1 [Example 372, 1-((cis)-3-phenylcyclobutyl)-4-((5-(thiazol-2-yl)-1,3,4-thiadiazol-2-yl)methyl)-1,4-dihydropyrazine-2,3-dione]	23
O=c1c(=O)n(C2(CF)CC2)ccn1Cc1ccc(-c2ccccn2)nn1 [Example 239, 1-(1-(fluoromethyl)cyclopropyl)-4-((6-(pyridin-2-yl)pyridazin-3-yl)methyl)-1,4-dihydropyrazine-2,3-dione]	82
CC1(n2ccn(Cc3nnc(-c4cccc(F)c4)s3)c(=O)c2=O)CCC1 [Example 82, 1-((5-(3-fluorophenyl)-1,3,4-thiadiazol-2-yl)methyl)-4-(1-methylcyclobutyl)-1,4-dihydropyrazine-2,3-dione]	10
O=C1C(=O)N(C2CCC2)CCN1Cc1ccc(-c2cc(F)cc(F)c2)nn1 [Example 22, 1-cyclobutyl-4-((6-(3,5-difluorophenyl)pyridazin-3-yl)methyl)piperazine-2,3-dione]	22
O=c1c(=O)n(C2CCC2)ccn1Cc1cc(-c2cccc(F)c2)no1 [Example 157, 1-cyclobutyl-4-((3-(3-fluorophenyl)isoxazol-5-yl)methyl)-1,4-dihydropyrazine-2,3-dione]	1
O=c1c(=O)n(C2CCC2)ccn1Cc1cc(-c2ccc(F)cc2)no1 [Example 159, 1-cyclobutyl-4-((3-(4-fluorophenyl)isoxazol-5-yl)methyl)-1,4-dihydropyrazine-2,3-dione]	1
CC(Cc1nnc(-c2ccccc2)s1)N1CCN(C2CCCC2)C(=O)C1=O (stereo not drawn) [Example 352, 1-cyclopentyl-4-(1-(5-phenyl-1,3,4-thiadiazol-2-yl)propan-2-yl)piperazine-2,3-dione]	13
O=c1c(=O)n(C2CCC2)ccn1Cc1nnc(-c2cccc(F)c2)s1 [Example 28, 1-cyclobutyl-4-((5-(3-fluorophenyl)-1,3,4-thiadiazol-2-yl)methyl)-1,4-dihydropyrazine-2,3-dione]	8
O=c1c(=O)n(C2CCC2)ccn1Cc1cn(-c2ccccc2)cn1 [Example 175, 1-cyclobutyl-4-((1-phenyl-1H-imidazol-4-yl)methyl)-1,4-dihydropyrazine-2,3-dione]	14
O=c1c(=O)n(C23CC(F)(C2)C3)ccn1Cc1cc(-c2cccnc2)on1 [Example 211, 1-(3-fluorobicyclo[1.1.1]pentan-1-yl)-4-((5-(pyridin-3-yl)isoxazol-3-yl)methyl)-1,4-dihydropyrazine-2,3-dione]	61
O=c1c(=O)n(C2CCCC2)ccn1Cc1nnc(-c2ccccc2)s1 [Example 124, 1-cyclopentyl-4-((5-phenyl-1,3,4-thiadiazol-2-yl)methyl)-1,4-dihydropyrazine-2,3-dione]	7
O=C1C(=O)N(C2CCC2)[C@H]2CCC[C@@H]2N1Cc1ccc(-c2ccccc2)nn1 (single isomer, unassigned) [Example 435A, (S,S or R,R)-1-cyclobutyl-4-((6-phenylpyridazin-3-yl)methyl)hexahydro-1H-cyclopenta[b]pyrazine-2,3-dione]	85
N#CC1(n2ccn(Cc3ccc(-c4nccs4)nn3)c(=O)c2=O)CC1 [Example 204, 1-(2,3-dioxo-4-((6-(thiazol-2-yl)pyridazin-3-yl)methyl)-3,4-dihydropyrazin-1(2H)-yl)cyclopropane-1-carbonitrile]	78
O=C1C(=O)N(C2CCCC2)CCN1Cc1ncc(-c2ccccc2)cc1F [Example 101, 1-cyclopentyl-4-((3-fluoro-5-phenylpyridin-2-yl)methyl)piperazine-2,3-dione]	8
O=C1C(=O)N(C23CC(C2)C3)CCN1Cc1ccc(-n2nccn2)cn1 [Example 359, 1-((5-(2H-1,2,3-triazol-2-yl)pyridin-2-yl)methyl)-4-(bicyclo[1.1.1]pentan-1-yl)piperazine-2,3-dione]	22
CC1CCC1N1CCN(Cc2ncc(-c3ccccc3)cn2)C(=O)C1=O (stereo not drawn) [Example 282, 1-(2-methylcyclobutyl)-4-((5-phenylpyrimidin-2-yl)methyl)piperazine-2,3-dione]	30
O=C1C(=O)N([C@H]2C[C@H]3C[C@H]3C2)CCN1Cc1cc(-c2ccccc2)no1 [Example 170, 1-((cis)-bicyclo[3.1.0]hexan-3-yl)-4-((3-phenylisoxazol-5-yl)methyl)piperazine-2,3-dione]	4
O=c1c(=O)n(C2(CF)CC2)ccn1Cc1ccc(-n2cccn2)nc1 [Example 231, 1-((6-(1H-pyrazol-1-yl)pyridin-3-yl)methyl)-4-(1-(fluoromethyl)cyclopropyl)-1,4-dihydropyrazine-2,3-dione]	22
